According to patent publication US20160029626A1 (priority 2011, published 2016):
Entries after “also recorded” stand apart in the source; their conditions may differ.

Legend:
[1] = test system: Peseudomonas aeruginosa, Klebsiella pneumoniae Enterobacter cloacae, and Staphylococcus aureus; details: Parry et al. (1976); cited from earlier work
[2] = test system: citrus variegated chlorosis (CVC), X. fastidiosa; parameters: species or system orange pear (Citrus sinenses); details: in vivo
[3] = test system: Streptococcus epidermidis, and Haemophilus influenzae, Moraxella catarrhalis; details: Zheng et al., 1999; OLOFSSON et al., 2003; cited from earlier work
X. fastidiosa [4] = test system: X. fastidiosa; parameters: species or system orange pear (Citrus sinenses); details: in vivo
X. fastidiosa biofilm = type: cell-based, Xylella fastidiosa 9a5c strain
[5] = Quantification of NAC by HPLC in nutrient solution of Leonard pots with plants (uptake by the plant); details: for Measured Conc of NAC in the samples collected: nutrient solution after one day with the plant
X. fastidiosa [6] = type: cell-based, Xylella fastidiosa 9a5c strain
biofilm of X. fastidiosa = type: cell-based, Xylella fastidiosa 9a5c strain
X. fastidiosa [7] = test system: X. fastidiosa; parameters: species or system orange pear (Citrus sinenses); details: in vivo; remark: listed apart in the source
orange pear plants = assay: Plant development under NAC treatment (phytotoxicity); type: in vivo, orange pear (Citrus sinenses)
Protocol: 2. Experiments using NAC on infected plants: An analysis was performed with quantitative PCR, as described in sequence, to quantify the initial population of bacteria in plants. The plants were then transferred to Leonard pots, constructed from 750 mL glass bottles, cut and painted with metallic paint to prevent light penetration. Previously autoclaved, vermiculite and sand were added to the top of the vessel and in the collecting part, a Hoagland Arnon (1950) nutrient solution (FIG. 8). Two experiments were performed with different doses of N-acetyl L-cysteine (NAC), both conducted in a greenhouse (see table 1 below).
The first of the experiments was a pilot, in which 120 mg and 600 mg of N-acetyl L -cysteine (NAC) were added to 250 mL of Hoagland & Arnon (1950). Control plants were also maintained without addition of N-acetyl L-cysteine (NAC). The second test had plants to which were added 120 mg, 600 mg and 1500 mg L30 N-acetyl cysteine (NAC) along with 250 mL of nutrient solution of Hoagland & Arnon (1950) and control experiments without the addition of the compound. 4 biological repetitions were performed for each treatment in each experiment.

[8] = Degradation of NAC in Hoagland nutrient solution in greenhouse (without plants), HPLC; type: physicochemical; details: 187.5 mg/mL expected without degradation
Protocol: A study to check the degradation of N-acetyl L-cysteine (NAC) was also performed in a Hoagland nutrient solution under the same conditions in which the in vivo experiment was carried out. The nutrient solution of Hoagland was prepared and placed in the receiving party of potted Leonard (without plants), as well as 600 mg N-acetyl L-cysteine (NAC).

CC(=O)N[C@@H](CS)C(=O)O [NAC, N-acetyl L-cysteine]
efficiency regarding the adhesion of bacteria [1]: demonstrated efficiency
CVC symptoms after interruption of treatment [2]: symptoms were observed to be less severe; also recorded: chlorosis spots were not observed
CVC symptoms in the leaves [2]: visible reduction of symptoms; also recorded: some points chlorosis in the leaves, but in smaller quantities; also recorded: hardly possible to see symptoms; also recorded: visibly smaller
control of the bacterium (symptoms and number of bacterial cells in leaves) [2]: effective in controlling the bacterium
symptoms in treated plants [2]: significant reduction of symptoms
symptoms later than two months after interruption of treatment [2]: resurgence of symptoms
adhesion of human pathogenic bacteria in epithelial cells and surface abiotic [3]: reduce the adhesion
amount of bacteria in each plant by qPCR (X. fastidiosa [4]): does not appear to have been affected
cell mass of biofilms compared to the control condition (X. fastidiosa biofilm; different doses of NAC (1, 2, 6 mg/mL), 14 days): reduced compared to the control condition
cell mass of planktonic cells (X. fastidiosa biofilm; different doses of NAC (1, 2, 6 mg/mL), planktonic fraction): increase in mass
biofilm formation (X. fastidiosa biofilm; doses of 1.0, 2.0 or 6.0 mg/mL): inhibited biofilm formation
absorption of the substance by the plant ([5]; 1500 mg NAC in 250 mL): absorption of the substance by the plant does not occur
transport of NAC by the plant ([5]; measured concentrations below those expected (lower doses)): could be transported by the plant
Measured Conc of NAC in the samples collected ([5]; total NAC 120 mg (expected 0.48 mg/mL)): 0.288 mg/mL
Measured Conc of NAC in the samples collected ([5]; total NAC 600 mg (expected 2.4 mg/mL)): 1.98 mg/mL
Measured Conc of NAC in the samples collected ([5]; total NAC 1500 mg (expected 6.0 mg/mL)): 6.156 mg/mL
CFU/mL in biofilm vs control (X. fastidiosa [6]; 1 mg/mL NAC): lower than in the control biofilm
reduction of number of living cells present in the biofilm (X. fastidiosa [6]; 6 mg/mL NAC): ~100%
toxic action towards X. fastidiosa cells (X. fastidiosa [6]; in vitro, 1.0, 2.0 or 6.0 mg/mL): toxic action; also recorded: toxic to the cells of bacteria
CFU of planktonic cells in serial dilution (X. fastidiosa [6]; planktonic cells, NAC treatments, after 3 washes): not possible to count any CFU
lowering of EPS between control and treatment (biofilm of X. fastidiosa; 6 mg/ml NAC): about 45%
total amount of EPS vs control (biofilm of X. fastidiosa; NAC 1, 2, 6 mg/mL): In control, the total amount of EPS was greater
number of X. fastidiosa cells isolated from plants after treatment (X. fastidiosa [7]): decrease in the number of X. fastidiosa cells; also recorded: strong decrease of bacteria
plant development (orange pear plants; 1500 mg NAC in 250 mL nutrient solution): plant development was clearly affected; also recorded: fall of leaves, wilting and visible damage to the physiological development of the plant
plant development after interruption of treatment (orange pear plants; 1500 mg NAC, two months in soil without treatment): remained less developed
plant development (orange pear plants; lower doses (120 and 600 mg) NAC): do not cause problems for plant development
concentration of NAC remaining in Hoagland solution ([8]; after 1 day in greenhouse): 143140 µg/mL
concentration of NAC remaining in Hoagland solution ([8]; after 7 days in greenhouse): 63220 µg/mL
concentration of NAC remaining in Hoagland solution ([8]; after 14 days in greenhouse): 3150 µg/mL
